System: high fat fed mice
Assay: Glucose tolerance test after 21 days treatment
Assay type: in vivo
Method: Twice daily (09:30 and 17:30 h) i.p. injections of saline vehicle (0.9% w/v NaCl), polypeptides (at 25 nmol/kg bw) were administered for 21 days in high fat mice. Energy intake and body weight were monitored daily, and non-fasting blood glucose and plasma insulin concentrations were assessed at 3 day intervals. On day 21, a non-fasted 24 h glucose profile was conducted. At the end of the treatment period, i.p. glucose tolerance (18 mmol/kg bw), biological response to GIP (18 mmol/kg glucose in combination with native GIP (25 nmol/kg); i.p.) and insulin sensitivity (15 U/kg bw; i.p.) tests were performed. HOMA-IR was determined using the equation HOMA-IR=fasting glucose (mmol/l)×fasting insulin (mU/l)/22.5. All test solutions were administered in a final volume of 5 ml/kg body weight, at 10:00 h without previous 09:30 h peptide injection. Terminal analysis included measurement of total body fat and lean mass by DEXA scanning (Piximus Densitometer, Inside Outside Sales, Madison Wis., USA) and extraction of pancreatic tissue for analysis as detailed below. Immunohistochemistry Pancreatic tissue was excised, divided longitudinally and either immediately snap frozen for subsequent extraction of insulin using acid ethanol extraction (5 ml/g) as described by Irwin et al., 2015 (Diabetes. 2015 August; 64(8):2996-3009), or processed for immunohistochemical examination. Briefly, pancreatic tissues were fixed in 4% parafolmaldehyde at 4° C. for 48 h. Pancreata were then embedded in paraffin wax and processed using an automated tissue processor (Leica TP1020, Leica Microsystems, Nussloch, Germany). Immunohistochemistry was performed as described by Vasu et al., 2014 (PLoS One. 2014 Jun. 26; 9(6):e101005). Succinctly, tissue sections were deparaffinised, rehydrated and probed with primary antibodies: mouse anti-insulin antibody (1:500; Abcam, ab6995) or guinea-pig anti-glucagon antibody (PCA2/4, 1:400; raised in-house). The sections were then incubated with secondary antibody, Alexa Fluor 488 goat anti-guinea pig IgG (1:400) or Alexa Fluor 594 goat anti-mouse IgG (1:400); respectively. […] Islet parameters were analysed using Cell^F image analysis software (Olympus Soft Imaging Solutions, GmbH).
Tests were conducted after twice daily treatment with saline vehicle (0.9% (w/v) NaCl), (DAla^2)GIP and (DAla^2)GIP/xenin-8-Gln (each at 25 nmol/kg bw) for 21 days. For glucose tolerance test, blood glucose and plasma insulin concentrations were measured before and 15, 30, 60 and 105 min after i.p injection of glucose (18 mmol/kg bw). For metabolic response to GIP, blood glucose and plasma insulin concentrations were measured before and 15, 30, 60 and 105 min after i.p injection of glucose (18 mmol/kg bw) in combination with GIP (25 nmol/kg bw). […]

[1] = 0-105 min, glucose 18 mmol/kg i.p., 18 h fasted, after 21 days 25 nmol/kg twice daily, mean ± SEM

CC[C@H](C)[C@H](NC(=O)[C@H](CO)NC(=O)[C@H](Cc1ccc(O)cc1)NC(=O)[C@H](CC(=O)O)NC(=O)[C@H](CO)NC(=O)[C@@H](NC(=O)[C@H](Cc1ccccc1)NC(=O)[C@@H](NC(=O)CNC(=O)[C@H](CCC(=O)O)NC(=O)[C@@H](C)NC(=O)[C@@H](N)Cc1ccc(O)cc1)[C@@H](C)O)[C@@H](C)CC)C(=O)N[C@@H](C)C(=O)N[C@@H](CCSC)C(=O)N[C@@H](CC(=O)O)C(=O)N[C@@H](CCCCN)C(=O)N[C@H](C(=O)N[C@@H](Cc1c[nH]cn1)C(=O)N[C@@H](CCC(N)=O)C(=O)N[C@@H](CCC(N)=O)C(=O)N[C@@H](CC(=O)O)C(=O)N[C@@H](Cc1ccccc1)C(=O)N[C@H](C(=O)N[C@@H](CC(N)=O)C(=O)N[C@@H](Cc1c[nH]c2ccccc12)C(=O)N[C@@H](CC(C)C)C(=O)N[C@@H](CC(C)C)C(=O)N[C@@H](C)C(=O)N[C@@H](CCC(N)=O)C(=O)N[C@@H](CCCCN)C(=O)NCC(=O)N[C@@H](CCCCN)C(=O)N[C@@H](CCCCN)C(=O)N[C@@H](CC(N)=O)C(=O)N[C@@H](CC(=O)O)C(=O)N[C@@H](Cc1c[nH]c2ccccc12)C(=O)N[C@@H](CCCCN)C(=O)N[C@@H](Cc1c[nH]cn1)C(=O)N[C@@H](CC(N)=O)C(=O)N[C@H](C(=O)N[C@H](C(=O)N[C@@H](CCC(N)=O)C(=O)O)[C@@H](C)O)[C@@H](C)CC)C(C)C)[C@@H](C)CC [(DAla2)GIP, TYR-(d)ALA-GLU-GLY-THR-PHE-ILE-SER-ASP-TYR-SER-ILE-ALA-MET-ASP-LYS-ILE-HIS-GLN-GLN-ASP-PHE-VAL-ASN-TRP-LEU-LEU-ALA-GLN-LYS-GLY-LYS-LYS-ASN-ASP-TRP-LYS-HIS-ASN-ILE-THR-GLN]
Glucose tolerance test Blood glucose AUC [1]: 1714.7 ± 138.6^Δ mmol/l · min
Glucose tolerance test Plasma insulin AUC [1]: 65.4 ± 9.2^Δ ng/ml · min
Glucose-stimulated plasma insulin AUC (21 days treatment, vs high fat controls): reduced, albeit non-significantly
Overall AUC blood glucose following a glucose load (21 days treatment, vs saline controls): strong tendency to reduce overall AUC blood glucose levels
